Experimental data: US12570647B2 (Saint Louis University, priority 2021, dated 2026)
In brackets after ≈: the same amount, converted by molar mass. Read-outs that look alike come from different tables or passages of the source.

What was measured:
S. aureus AR222 [1] = assay: S. aureus MIC80 determination, broth microdilution (CLSI) in CAMHB; format: cell-based; conditions: Table 2
Procedure: (§1) S. Aureus MIC80 determinations in S. aureus ATCC25923 or in multidrug-resistant strains AR215, AR217 and AR255. MIC80's were determined by the broth microdilution method recommended by the Clinical and Laboratory Standards Institute (CLSI) in Cation-adjusted Mueller-Hinton broth (CAMHB). (Cao et al., 2018). In the preliminary screening, three compound concentrations were used: 5.8, 20.4, and 71.4 μM; for quantitative MIC80 measurements, a 1.5-fold dilution series of the compounds was prepared in CAMHB. Overnight bacterial culture was added to the diluted compounds in a 96-well plate after adjusting the bacterial concentration to achieve a 5×10^5 CFU/mL final concentration. After 16-24 h incubation at 35±2° C., the plates were read at 600 nm in a microplate reader. The MIC80 was defined as the concentration of an antibacterial agent that inhibited bacteria growth ≥80% compared to vehicle-treated control cultures. All values were determined at least twice independently, and the average number is reported.
(§2) AR215, AR217, and AR222 were obtained from the Centers for Disease Control and Prevention (CDC). AR215 and AR217 are cefoxitin-screen positive (resistant to cefoxitin) and resistant to oxacillin, which are MRSA strains. AR215 is also resistant to clindamycin, erythromycin, levofloxacin, and penicillin. AR217 is also resistant to levofloxacin, penicillin, and Trimethoprim-sulfamethoxazole. AR222 is only resistant to penicillin.

[2] = tested on: S. aureus AR217 (MRSA, multidrug-resistant strain); assay: as above; format: cell-based; conditions: Table 2
Procedure: as §1, §2

[3] = tested on: S. aureus AR215 (MRSA, multidrug-resistant strain); assay: as above; format: cell-based; conditions: Table 2
Procedure: as §1, §2

S. aureus ATCC25923 = assay: as above; format: cell-based; conditions: S. aureus ATCC 25923
Procedure: as §1

S. aureus AR215 = tested on: S. aureus AR215; set-up: key to Antibiotic susceptibility (R/S/I): R: resistance; S: sensitive; I: intermediate; conditions: Table 2; S. aureus AR215 (CDC strain); cited from earlier work
S. aureus AR217 = tested on: S. aureus AR217; set-up: key to Antibiotic susceptibility (R/S/I): R: resistance; S: sensitive; I: intermediate; conditions: Table 2; S. aureus AR217 (CDC strain); cited from earlier work
S. aureus AR222 [4] = tested on: S. aureus AR222; set-up: key to Antibiotic susceptibility (R/S/I): R: resistance; S: sensitive; I: intermediate; conditions: Table 2; S. aureus AR222 (CDC strain); cited from earlier work
S. aureus ATCC 25923 = tested on: S. aureus ATCC 25923; set-up: key: R: resistance; S: sensitive; I: intermediate; conditions: Table 2; cited from earlier work
[5] = Staphylococcus aureus, ATCC25923, Table 1, growth inhibition ≥80% vs vehicle, 16-24 h, read-out: ATCC 25923 MIC80
[6] = Staphylococcus aureus, ATCC25923, Table 2, read-out: MIC80

With `Cc1ccc(C(=O)N(CCCn2ccnc2)c2nc3c(C)cc(Cl)cc3s2)o1` [Example 4, N-(3-(1H-imidazol-1-yl)propyl)-N-(6-chloro-4-methylbenzo[d]thiazol-2-yl)-5-methylfuran-2-carboxamide] the MIC80 (S. aureus AR222 [1]; Staphylococcus aureus) was 0.78 µM (≈ 0.324 µg/mL), the MIC80 ([2]; Staphylococcus aureus, MRSA) was 5.9 µM (≈ 2.45 µg/mL) and the MIC80 ([3]; Staphylococcus aureus, MRSA) was 8.9 µM (≈ 3.69 µg/mL). For the same compound, the MIC80 (S. aureus ATCC25923; [5]) was 2.6 µM (≈ 1.08 µg/mL) and the MIC80 (S. aureus ATCC25923; [6]) was 0.78 µM (≈ 0.324 µg/mL).
With `Cc1ccoc1C(=O)N(CCCn1ccnc1)c1nc2c(C)cc(Cl)cc2s1` [Example 15, N-(3-(1H-imidazol-1-yl)propyl)-N-(6-chloro-4-methylbenzo[d]thiazol-2-yl)-3-methylfuran-2-carboxamide] the MIC80 (S. aureus AR222 [1]; Staphylococcus aureus) was 2.6 µM (≈ 1.08 µg/mL), the MIC80 ([2]; Staphylococcus aureus, MRSA) was 4 µM (≈ 1.66 µg/mL) and the MIC80 ([3]; Staphylococcus aureus, MRSA) was 13.3 µM (≈ 5.52 µg/mL). For the same compound, the MIC80 (S. aureus ATCC25923; [5]) was under 1.7 µM and the MIC80 (S. aureus ATCC25923; [6]) was 1.8 µM (≈ 0.747 µg/mL).
In the case of `CO[C@H]1/C=C/O[C@@]2(C)Oc3c(C)c(O)c4c(O)c(c(/C=N/N5CCN(C)CC5)c(O)c4c3C2=O)NC(=O)/C(C)=C\C=C\[C@H](C)[C@H](O)[C@@H](C)[C@@H](O)[C@@H](C)[C@H](OC(C)=O)[C@@H]1C` [RIF, Rifampin], the “Antibiotic susceptibility (R/S/I)” value (S. aureus AR215) is given as “S”, the “Antibiotic susceptibility (R/S/I)” value (S. aureus AR217) is given as “S” and the “Antibiotic susceptibility (R/S/I)” value (S. aureus AR222 [4]) is given as “I”. The “Antibiotic susceptibility (R/S/I)” value (S. aureus ATCC 25923) was “S”.
In the case of `CN[C@H](CC(C)C)C(=O)N[C@H]1C(=O)N[C@@H](CC(N)=O)C(=O)N[C@H]2C(=O)N[C@H]3C(=O)N[C@H](C(=O)N[C@H](C(=O)O)c4cc(O)cc(O)c4-c4cc3ccc4O)[C@H](O)c3ccc(c(Cl)c3)Oc3cc2cc(c3O[C@@H]2O[C@H](CO)[C@@H](O)[C@H](O)[C@H]2O[C@H]2C[C@](C)(N)[C@H](O)[C@H](C)O2)Oc2ccc(cc2Cl)[C@H]1O` [VAN, Vancomycin], the “Antibiotic susceptibility (R/S/I)” value (S. aureus AR215) is given as “I”, the “Antibiotic susceptibility (R/S/I)” value (S. aureus AR217) is given as “I” and the “Antibiotic susceptibility (R/S/I)” value (S. aureus AR222 [4]) is given as “I”. The “Antibiotic susceptibility (R/S/I)” value (S. aureus ATCC 25923) was “S”.
For Gentamicin, the “Antibiotic susceptibility (R/S/I)” value (S. aureus AR215) is listed as “S”, the “Antibiotic susceptibility (R/S/I)” value (S. aureus AR217) is listed as “S” and the “Antibiotic susceptibility (R/S/I)” value (S. aureus AR222 [4]) is listed as “S”. The “Antibiotic susceptibility (R/S/I)” value (S. aureus ATCC 25923) was “S”.
In the case of clorofloxacin [reference compound], the MIC80 (S. aureus AR222 [1]) is reported as 0.52 µM, the MIC80 [2] is reported as “.30 µM” and the MIC80 [3] is reported as “.66 µM”. For the same compound, the MIC80 (S. aureus ATCC25923; Table 2, read-out: MIC80) was 40.52 µM.
